Test results as given in US20150148234A1, “HERBICIDE-RESISTANT SUNFLOWER PLANTS WITH MULTIPLE HERBICIDE RESISTANT ALLELES OF AHASL1 AND METHODS OF USE” (NIDERA S.A., priority 2013, published 2015).
Marks after values point to notes of the source that are not given here.

Columns and labels:
[1] = test system: sunflower line HA445 (high oleic); assay: tolerance to imidazolinones, greenhouse (Example 8)
sunflower line L1, A205V = assay: imazapyr whole plant greenhouse test (Example 2); assay type: in vivo
Experimental: (§1) Seeds were sown in Petri dishes and, after germination, plantlets were transplanted to pots of 10 cm of diameter in a potting media consisting of equal parts of vermiculite, soil and sand. Plants were grown in a greenhouse under natural light conditions supplemented with 400 W sodium halide lamps to provide a 16 hr daylength. Day/night temperatures were 25 and 20 ° C., respectively. At the V2-V4 stage (Schneiter & Miller (1981) Crop Sci. 21:901-903) 10 plants of each genotype were randomly assigned to each treatment consisting of eight imazapyr doses (0, 40, 80, 160, 240, 320, 400 and 480 g ai/ha, corresponding to untreated, 0.5×, 1×, 2×, 3×, 4×, 5× and 6×, respectively), and a zero-time biomass determination. Experiment was arranged as a randomized block design with a full factorial (sunflower line×treatment) arrangement of treatments and 10 replications.
(§2) On the day of herbicide application ten plants of each genotype were cut at the cotyledonal node and dried at 60° C. for 48 hrs for zero-time dried weight determination.
(§3) The remaining plants were maintained for 14 days after imazapyr treatment (DAT) and their height, Phytotoxicity Index (PI) and above ground dry biomass were determined Height was determined as the distance between the cotyledonal node and the apex of each plant. Above ground biomass data from each line were converted to biomass accumulation after application by subtracting the appropriate average zero- time biomass from each sample. Dry biomass data were converted to percentages of the untreated control plants within each line to allow direct comparisons between groups.

[2] = test system: sunflower genotypes carrying A122T (mean of H2, L3, L4); assay: imazapyr whole plant greenhouse test (Example 2); assay type: in vivo; conditions: for Phytotoxicity Index (0-9) 14 days after treatment / biomass accumulation 14 days after treatment, % of untreated / plant height 14 days after treatment, % of untreated: A122T Mean; for height reduction: of the untreated controls
Experimental: as §1, §2, §3

[3] = test system: sunflower genotypes A122T/A205V (mean of H3, H4); assay: imazapyr whole plant greenhouse test (Example 2); assay type: in vivo; conditions: A122T/A205V Mean; dose 0.5 (0.5x, 40 g ai/ha)
Experimental: as §1, §2, §3

CC(C)C1(C)N=C(c2ncccc2C(=O)O)NC1=O (centres unmarked) [imazapyr]
outcome of the herbicide treatment ([1]; 160 gr/ha at V4): killed | Mean Phytotoxicity Index (0-9) ([1]; 160 gr/ha at V4, fourteen days after treatment): 8.8 | Phytotoxicity Index (0-9) 14 days after treatment (sunflower line L1, A205V; dose 0.5 (0.5x, 40 g ai/ha)): 0 | biomass accumulation 14 days after treatment, % of untreated (sunflower line L1, A205V; dose 0.5 (0.5x, 40 g ai/ha)): 91.7% | plant height 14 days after treatment, % of untreated (sunflower line L1, A205V; dose 0.5 (0.5x, 40 g ai/ha)): 100.0% | Phytotoxicity Index (0-9) 14 days after treatment (sunflower line L1, A205V; dose 1 (1x, 80 g ai/ha)): 0 | biomass accumulation 14 days after treatment, % of untreated (sunflower line L1, A205V; dose 1 (1x, 80 g ai/ha)): 81.7% | plant height 14 days after treatment, % of untreated (sunflower line L1, A205V; dose 1 (1x, 80 g ai/ha)): 100.0% | Phytotoxicity Index (0-9) 14 days after treatment (sunflower line L1, A205V; dose 2 (2x, 160 g ai/ha)): 1.6 | biomass accumulation 14 days after treatment, % of untreated (sunflower line L1, A205V; dose 2 (2x, 160 g ai/ha)): 54.7% | plant height 14 days after treatment, % of untreated (sunflower line L1, A205V; dose 2 (2x, 160 g ai/ha)): 78.9% | Phytotoxicity Index (0-9) 14 days after treatment (sunflower line L1, A205V; dose 3 (3x, 240 g ai/ha)): 5.1 | biomass accumulation 14 days after treatment, % of untreated (sunflower line L1, A205V; dose 3 (3x, 240 g ai/ha)): 35.7% | plant height 14 days after treatment, % of untreated (sunflower line L1, A205V; dose 3 (3x, 240 g ai/ha)): 50.0% | Phytotoxicity Index (0-9) 14 days after treatment (sunflower line L1, A205V; dose 4 (4x, 320 g ai/ha)): 8.4 | biomass accumulation 14 days after treatment, % of untreated (sunflower line L1, A205V; dose 4 (4x, 320 g ai/ha)): 25.3% | plant height 14 days after treatment, % of untreated (sunflower line L1, A205V; dose 4 (4x, 320 g ai/ha)): 38.1% | Phytotoxicity Index (0-9) 14 days after treatment (sunflower line L1, A205V; dose 5 (5x, 400 g ai/ha)): 8.9 | biomass accumulation 14 days after treatment, % of untreated (sunflower line L1, A205V; dose 5 (5x, 400 g ai/ha)): 19.8% | plant height 14 days after treatment, % of untreated (sunflower line L1, A205V; dose 5 (5x, 400 g ai/ha)): 31.8% | Phytotoxicity Index (0-9) 14 days after treatment (sunflower line L1, A205V; dose 6 (6x, 480 g ai/ha)): 8.9 | biomass accumulation 14 days after treatment, % of untreated (sunflower line L1, A205V; dose 6 (6x, 480 g ai/ha)): 19.5% | plant height 14 days after treatment, % of untreated (sunflower line L1, A205V; dose 6 (6x, 480 g ai/ha)): 34.7% | Phytotoxicity Index (0-9) 14 days after treatment ([2]; dose 0.5 (0.5x, 40 g ai/ha)): 0.3 | biomass accumulation 14 days after treatment, % of untreated ([2]; dose 0.5 (0.5x, 40 g ai/ha)): 98.9% | plant height 14 days after treatment, % of untreated ([2]; dose 0.5 (0.5x, 40 g ai/ha)): 99.9% | Phytotoxicity Index (0-9) 14 days after treatment ([2]; dose 1 (1x, 80 g ai/ha)): 0.3 | biomass accumulation 14 days after treatment, % of untreated ([2]; dose 1 (1x, 80 g ai/ha)): 96.7* % | plant height 14 days after treatment, % of untreated ([2]; dose 1 (1x, 80 g ai/ha)): 99.5% | Phytotoxicity Index (0-9) 14 days after treatment ([2]; dose 2 (2x, 160 g ai/ha)): 0.3 | biomass accumulation 14 days after treatment, % of untreated ([2]; dose 2 (2x, 160 g ai/ha)): 92.2** % | plant height 14 days after treatment, % of untreated ([2]; dose 2 (2x, 160 g ai/ha)): 98.0% | Phytotoxicity Index (0-9) 14 days after treatment ([2]; dose 3 (3x, 240 g ai/ha)): 0.3 | biomass accumulation 14 days after treatment, % of untreated ([2]; dose 3 (3x, 240 g ai/ha)): 90.0** % | plant height 14 days after treatment, % of untreated ([2]; dose 3 (3x, 240 g ai/ha)): 95.7* % | Phytotoxicity Index (0-9) 14 days after treatment ([2]; dose 4 (4x, 320 g ai/ha)): 0.5 | biomass accumulation 14 days after treatment, % of untreated ([2]; dose 4 (4x, 320 g ai/ha)): 85.7** % | plant height 14 days after treatment, % of untreated ([2]; dose 4 (4x, 320 g ai/ha)): 94.6** % | Phytotoxicity Index (0-9) 14 days after treatment ([2]; dose 5 (5x, 400 g ai/ha)): 0.8 | biomass accumulation 14 days after treatment, % of untreated ([2]; dose 5 (5x, 400 g ai/ha)): 74.3** % | plant height 14 days after treatment, % of untreated ([2]; dose 5 (5x, 400 g ai/ha)): 85.4** % | Phytotoxicity Index (0-9) 14 days after treatment ([2]; dose 6 (6x, 480 g ai/ha)): 1.2 | biomass accumulation 14 days after treatment, % of untreated ([2]; dose 6 (6x, 480 g ai/ha)): 69.9** % | plant height 14 days after treatment, % of untreated ([2]; dose 6 (6x, 480 g ai/ha)): 81.2** % | height reduction ([2]; A122T homozygous, 0.5x): 0.1% | height reduction ([2]; A122T homozygous, 6x): 18.8% | reduction of biomass weight ([2]; A122T homozygous, higher dose (6x)): 25% | Phytotoxicity Index (0-9) 14 days after treatment [3]: 0.5 | biomass accumulation 14 days after treatment, % of untreated [3]: 99.6% | plant height 14 days after treatment, % of untreated [3]: 99.4%
